Activity calls are given as the source filed them. The calls are words filed in the database; no cut-off is given here.
How the values were obtained:
MCF7 [1] = assay: cells; conditions: Homo sapiens
T47D = assay: cells; conditions: Homo sapiens
COLO 205 [2] = assay: cells; conditions: Homo sapiens
A549 = assay: cells; conditions: Homo sapiens
ZR-75-1 = assay: cells; conditions: Homo sapiens
MCF7 [3] = assay type: functional, Homo sapiens; conditions: at 50 mg/kg
COLO 205 [4] = conditions: Homo sapiens
U-87 MG = assay: cells; conditions: Homo sapiens
U-251 = assay: cells; conditions: Homo sapiens
HepG2 = assay: cells; conditions: Homo sapiens
SNU-5 = assay: cells; conditions: Homo sapiens
NCI-N87 = assay: cells; conditions: Homo sapiens
NCI-H1975 = assay: cells; conditions: Homo sapiens
NCI-H1993 = assay: cells; conditions: Homo sapiens
CFPAC-1 = assay: cells; conditions: Homo sapiens
PANC-1 = assay: cells; conditions: Homo sapiens
BXPC-3 = assay: cells; conditions: Homo sapiens
LNCaP = assay: cells; conditions: Homo sapiens
PC-3 = assay: cells; conditions: Homo sapiens
in vivo [5] = conditions: BALB/c, mouse, iv, 3 mg/kg
in vivo [6] = conditions: BALB/c, mouse, iv, 3 mg/kg; remark: listed apart in the source
in vivo [7] = conditions: BALB/c, mouse, iv, 3 mg/kg; remark: listed apart in the source
in vivo [8] = conditions: BALB/c, mouse, iv, 3 mg/kg; remark: listed apart in the source
in vivo [9] = conditions: BALB/c, mouse, iv, 3 mg/kg; remark: listed apart in the source
in vivo [10] = conditions: BALB/c, mouse, po, 10 mg/kg
in vivo [11] = conditions: BALB/c, mouse, po, 10 mg/kg; remark: listed apart in the source
in vivo [12] = conditions: BALB/c, mouse, po, 10 mg/kg; remark: listed apart in the source
in vivo [13] = conditions: BALB/c, mouse, po, 10 mg/kg; remark: listed apart in the source
in vitro [14] = conditions: human, microsomes
in vitro [15] = conditions: mouse, microsomes
in vitro [16] = conditions: rat, microsomes
in vitro [17] = conditions: dog, microsomes
in vitro [18] = conditions: rhesus monkey, microsomes
in vitro [19] = conditions: human, microsomes; remark: listed apart in the source
in vitro [20] = conditions: mouse, microsomes; remark: listed apart in the source
in vitro [21] = conditions: rat, microsomes; remark: listed apart in the source
in vitro [22] = conditions: dog, microsomes; remark: listed apart in the source
in vitro [23] = conditions: rhesus monkey, microsomes; remark: listed apart in the source

Cc1nc2c(F)cc(-c3nc(Nc4ccc5c(n4)CCN(CCN(C)P(C)(C)=O)C5)ncc3F)cc2n1C(C)C gave an IC50 (MCF7 [1]) of 551 nM, an IC50 (T47D) of 29 nM and an IC50 (COLO 205 [2]) of 387 nM. For the same molecule, the IC50 (A549) was 934 nM.

For C/C(=N\O)N(C)CCN1CCc2nc(Nc3ncc(F)c(-c4cc(F)c5nc(C)n(C(C)C)c5c4)n3)ccc2C1, the IC50 (MCF7 [1]) was 193 nM, the IC50 (T47D) was 62.5 nM and the IC50 (ZR-75-1) was 121 nM. The IC50 (COLO 205 [2]) was 125 nM and the IC50 (A549) was 423 nM.

With CCN1CCN(Cc2ccc(Nc3ncc(F)c(-c4cc(F)c5nc(C)n(C(C)C)c5c4)n3)nc2)CC1 [ABEMACICLIB] the T/C (MCF7 [3]) was 37%, the TGI (COLO 205 [4]) was “Active” and the IC50 (U-87 MG) was 706 nM. It also gave an IC50 (U-251) of 294 nM, an IC50 (HepG2) of 216 nM and an IC50 (SNU-5) of 523 nM. The IC50 (NCI-N87) was 519 nM, the IC50 (NCI-H1975) was 774 nM and the IC50 (NCI-H1993) was 1160 nM. It also gave an IC50 (CFPAC-1) of 371 nM, an IC50 (PANC-1) of 701 nM and an IC50 (BXPC-3) of 127 nM. It also gave an IC50 (LNCaP) of 84 nM, an IC50 (PC-3) of 9210 nM and a Cmax at 24 h (in vivo [5]) of 765 ng/mL. It also gave an AUC(0-t) at 24 h (in vivo [6]) of 830 ng·h/mL, a half-life at 24 h (in vivo [7]) of 325 min and a Vd at 24 h (in vivo [8]) of 8.24 L/kg. The clearance at 24 h (in vivo [9]) was 60 mL/min/kg, the Cmax at 24 h (in vivo [10]) was 577 ng/mL and the AUC(0-t) at 24 h (in vivo [11]) was 2170 ng·h/mL. The half-life at 24 h (in vivo [12]) was 283 min, the bioavailability at 24 h (in vivo [13]) was 78.6% and the half-life at 1 h (in vitro [14]) was 8.15 min. For the same molecule, the half-life at 1 h (in vitro [15]) was 8.25 min, the half-life at 1 h (in vitro [16]) was 231 min and the half-life at 1 h (in vitro [17]) was 17.8 min. For the same molecule, the half-life at 1 h (in vitro [18]) was 3.96 min, the microsomal CLint at 1 h (in vitro [19]) was 170 µL/min/mg and the microsomal CLint at 1 h (in vitro [20]) was 168 µL/min/mg. The microsomal CLint at 1 h (in vitro [21]) was 6 µL/min/mg, the microsomal CLint at 1 h (in vitro [22]) was 78 µL/min/mg and the microsomal CLint at 1 h (in vitro [23]) was 350 µL/min/mg.

Molecule CCOP(=O)(OCC)N(C)CCN1CCc2nc(Nc3ncc(F)c(-c4cc(F)c5nc(C)n(C(C)C)c5c4)n3)ccc2C1 has an IC50 (MCF7 [1]) of 150 nM, an IC50 (ZR-75-1) of 453 nM and an IC50 (COLO 205 [2]) of 911 nM. For the same molecule, the IC50 (A549) was 1060 nM.

— ChEMBL document CHEMBL4304763 (Eur J Med Chem, 2019)
